Reference: patent publication US20060155119A1, “Ascomycin crystalline forms and preparation thereof” (priority 2004, published 2006)

Assay: Storing crystalline Ascomycin Form A at 150° C. for 1 hour, solid form checked by PXRD/DSC
Format: physicochemical
Conditions: solid sample, initial PXRD form A, remark wraps over r7-r8: 'Remained crystalline'
Method: The crystalline forms of ascomycin, produced by the methods of the present invention can be analyzed by Powder X-ray diffraction (PXRD) was performed on an X-Ray powder diffractometer, ARL, θ-θ goniometer, Cu-tube, solid state detector with Peltier cooling. The sample holder was a round standard aluminum sample holder with round zero background. Scanning parameters: Range: 2-40 deg.2θ, Continuous Scan, Rate: 3 deg./min.
Ascomycin crystalline forms can also be analyzed by thermal analysis, which can be carried out by […] scanning calorimetry (DSC) and by thermogravimetric analysis (TGA). DSC thermograms can be obtained on a DSC822^e Mettler Toledo instrument (Advanced Instruments, San Juan, Puerto Rico). Sample weight: 3-5 mg; Heating rate: 10° C./min; Number of holes in the crucible: 3. TGA thermograms can be obtained on a Mettler TGA/SDTA 851 instrument (Advanced Instruments, San Juan, Puerto Rico) using a standard Allumina pan. Sample weight: 7-15 mg; Heating rate: 10° C./min.
Starting from Form A having the properties listed in Table 1, incubation at 150° C. for 1 hour produced Ascomycin Form C.

- remarks after storing at 150° C. for 1 hour: Remained
SMILES: CC[C@@H]1/C=C(\C)C[C@H](C)C[C@H](OC)[C@H]2O[C@@](O)(C(=O)C(=O)N3CCCC[C@H]3C(=O)O[C@H](/C(C)=C/[C@@H]3CC[C@@H](O)[C@H](OC)C3)[C@H](C)[C@@H](O)CC1=O)[C@H](C)C[C@@H]2OC [Form A, Ascomycin]
